Test results from patent US12479846B2, “EZH2 inhibitor and use thereof” (PHARMABLOCK SCIENCES (NANJING) , INC., priority 2019, dated 2025).

Legend:
Wild-type PRC2/EZH2 = target: T1, Wild-type PRC2/EZH2 (Homo sapiens, UniProt Q15910); assay: PRC2/EZH2 HTRF enzyme inhibition test; assay type: biochemical; conditions: human recombinant PRC2 complex, 30 μM SAM, 10 μM biotin-H3 (21-44) peptide
T1 construct: purchased Reaction Biology (Malvern, PA); host or cells: insect cell/baculovirus expression system
Source text: The human recombinant PRC2 complex was composed of human recombinant EZH2, AEBP2, EED, RbAp48, and SUZ12, co-expressed in an insect cell/baculovirus expression system, and purchased from Reaction Biology (Malvern, PA). […] The HTRF detection kit including monoclonal antibody histone H3K27Mel-Eu (K) fluorescent donor and streptavidin labeled XL665 fluorescent receptor was purchased from Cisbio (Shanghai, China). S-adenosylmethionine (SAM), Tween 20, dimethyl sulfoxide (DMSO), and Tris buffer at the highest purity level were purchased from Sigma.
The experiment was carried out in a buffer consisting of 50 mM Tris, pH 9.0, 0.1% BSA, and 0.01% Tween 20, and 1 mM DTT was added before the experiment started. 2.5 μL of a solution of a compound in 4% DMSO and 5 μL of PRC2/SAM mixed solution pre-incubated for 30 minutes were added to the buffer, and then the buffer was added to a white low-volume 384-well microtiter plate. The mixture solution was gently shaken and incubated at room temperature for 15 minutes. 2.5 μL of biotin-H3 (21-44) peptide substrate solution was added to the buffer to initiate the methyl transfer reaction. The final concentrations of PRC2, SAM, biotin-H3 peptide substrate, and DMSO were 2 ng/L, 30 μM, 10 μM, and 1%, respectively. The reaction was gently shaken at room temperature away from light for 120 minutes, and then 10 μL of monoclonal antibody histone H3K27Mel-Eu (K) fluorescent donor and streptavidin-labeled XL665 fluorescent receptor in the detection buffer from the manufacturer were added to the reaction mixture for incubation for 60 minutes. The final concentrations of these two reagents were 50 ng/ml and 62.5 nM, respectively. The plate was read on an Envision multi-template reader from PerkinElmer (Waltham MA USA) with an excitation wavelength of 320 nm and emission wavelengths of 665 and 615 nm. The IC50 value of the inhibitor was obtained by fitting an S-shaped dose-response curve (variable slope, four parameters) of fluorescence intensities at 665 nm and 615 nm over inhibitor concentrations by using Prism 7 (La Jolla, CA).

Karpas422 cells = assay: Cell proliferation inhibition test (CCK8), Karpas422; assay type: cell-based; conditions: Homo sapiens, KARPAS-422, 288 h; B-cell non-Hodgkin's lymphoma cell line, 12 days incubation, CCK8 cell viability
Source text: (§1) Cell Proliferation Inhibition Test
(§2) Karpass 422 and WSUDLCL-2 cells were purchased from the European Collection of Authenticated Cell Cultures (ECACC) and the German Collection of Microorganisms and Cell Cultures (Deutsche Sammlung von Mikroorganismen und Zellkulturen, DSMZ). RMBI 1640 medium, penicillin-streptomycin, heat-inactivated fetal bovine senum (FBS), and horse serum were purchased from ThermoFisher (Waltham MA, USA). Corning 96-well cell culture plate was purchased from ThermoFisher (Waltham MA, USA).
(§3) To evaluate the inhibitory effect of the synthesized compounds on the proliferation of B-cell non-Hodgkin's lymphoma Karpass 422 and WSUDLCL-2 cells, exponentially growing cells were inoculated in RMPI1640 medium containing 20% and 10% horse serum and 1% penicillin-streptomycin at concentrations of 2000 cells/ml and 3000 cells/ml, respectively, in 96-well plates, 100 μL per well, and incubated overnight in an incubator at 37° C. and 5% CO2. The compound was prepared in DMSO into a 10-point, 3-fold series diluent, starting at 6 mM. 1 μL of DMSO solution from a compound reserve plate was added to 99 μL of cell culture medium (the final maximum concentration of the compound in the assay was 30 μM and the final concentration of DMSO was 0.5%). 100 μL of compound solution from the medium was added to each well of the Karpass422 cell plate. After the addition of the compound solution, the assay plate was incubated at 37° C. and 5% CO2 for 12 days. During the incubation, the cell culture medium was replaced with the cell culture medium having the newly dissolved test compound every 4 days. After 100 μL of the old medium was removed from the cell plate, 100 μL of medium having dissolved test compound was added to the assay plate, which was prepared by adding 1 μL of compound DMSO series solution to 199 μL of cell medium with the same layout as the original preparation layout. Cell viability was measured by using cell count kit-8 (CCK8) purchased from Beyotime Biotechnology (Shanghai, China). 20 μL of CCK8 reagent was added to each well of the assay plate and incubated at 37° C. for 2 hours. The O.D. at 450 nm was read by using a FlexStation 3 microplate reader (Molecular Devices, Sunnyvale, CA 94089 USA).

WSUDLCL-2 cells = assay: Cell proliferation inhibition test (CCK8), WSUDLCL-2; assay type: cell-based; conditions: Homo sapiens, WSUDLCL2, 288 h; B-cell non-Hodgkin's lymphoma cell line, 12 days incubation, CCK8 cell viability
Source text: as §1, §2, §3

T1 sequence (Q15910 whole entry): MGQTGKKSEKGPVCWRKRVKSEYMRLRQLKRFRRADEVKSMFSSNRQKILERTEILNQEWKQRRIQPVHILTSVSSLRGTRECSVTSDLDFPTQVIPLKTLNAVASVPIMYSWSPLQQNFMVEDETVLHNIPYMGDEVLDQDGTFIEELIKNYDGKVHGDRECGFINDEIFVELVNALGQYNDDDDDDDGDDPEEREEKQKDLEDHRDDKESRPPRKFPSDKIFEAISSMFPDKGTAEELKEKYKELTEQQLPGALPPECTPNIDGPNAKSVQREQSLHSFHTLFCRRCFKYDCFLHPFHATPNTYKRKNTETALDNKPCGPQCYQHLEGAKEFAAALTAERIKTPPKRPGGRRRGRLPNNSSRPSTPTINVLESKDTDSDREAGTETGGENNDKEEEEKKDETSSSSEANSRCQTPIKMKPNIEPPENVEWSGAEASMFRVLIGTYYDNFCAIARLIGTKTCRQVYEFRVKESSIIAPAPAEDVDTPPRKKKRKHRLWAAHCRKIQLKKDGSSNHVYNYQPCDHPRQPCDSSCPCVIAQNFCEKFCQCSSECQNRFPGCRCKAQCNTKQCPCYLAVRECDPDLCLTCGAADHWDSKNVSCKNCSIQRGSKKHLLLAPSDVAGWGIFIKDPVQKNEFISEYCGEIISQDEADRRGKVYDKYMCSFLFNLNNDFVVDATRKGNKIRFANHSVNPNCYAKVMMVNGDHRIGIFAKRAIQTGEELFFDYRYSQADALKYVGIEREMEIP
T1 sequence (Q6ZN18 whole entry partner): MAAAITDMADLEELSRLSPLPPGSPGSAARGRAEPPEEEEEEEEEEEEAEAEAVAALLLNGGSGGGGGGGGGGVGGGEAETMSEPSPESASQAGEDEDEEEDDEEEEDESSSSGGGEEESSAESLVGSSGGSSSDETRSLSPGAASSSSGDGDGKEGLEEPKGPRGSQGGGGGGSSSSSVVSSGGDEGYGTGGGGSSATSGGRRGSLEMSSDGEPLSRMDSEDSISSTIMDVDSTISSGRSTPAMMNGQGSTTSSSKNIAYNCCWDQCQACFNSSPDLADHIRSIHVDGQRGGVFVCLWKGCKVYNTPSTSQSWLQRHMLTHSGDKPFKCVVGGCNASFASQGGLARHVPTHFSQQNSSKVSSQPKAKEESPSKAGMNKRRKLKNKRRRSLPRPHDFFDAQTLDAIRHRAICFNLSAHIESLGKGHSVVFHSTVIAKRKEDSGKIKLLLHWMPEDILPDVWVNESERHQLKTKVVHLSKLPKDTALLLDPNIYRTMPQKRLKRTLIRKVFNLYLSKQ
T1 sequence (O75530 whole entry partner): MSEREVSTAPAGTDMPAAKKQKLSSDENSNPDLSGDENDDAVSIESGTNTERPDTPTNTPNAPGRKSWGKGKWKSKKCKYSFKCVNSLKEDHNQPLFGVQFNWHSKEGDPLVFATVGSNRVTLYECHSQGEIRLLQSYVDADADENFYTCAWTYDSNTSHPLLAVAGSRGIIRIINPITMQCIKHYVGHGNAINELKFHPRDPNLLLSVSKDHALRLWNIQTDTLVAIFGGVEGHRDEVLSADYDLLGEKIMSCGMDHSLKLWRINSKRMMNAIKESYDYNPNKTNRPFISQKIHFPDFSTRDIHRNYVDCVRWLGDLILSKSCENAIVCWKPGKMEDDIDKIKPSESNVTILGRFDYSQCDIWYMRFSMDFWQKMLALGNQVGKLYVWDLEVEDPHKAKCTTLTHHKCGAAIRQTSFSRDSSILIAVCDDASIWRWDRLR
T1 sequence (Q09028 whole entry partner): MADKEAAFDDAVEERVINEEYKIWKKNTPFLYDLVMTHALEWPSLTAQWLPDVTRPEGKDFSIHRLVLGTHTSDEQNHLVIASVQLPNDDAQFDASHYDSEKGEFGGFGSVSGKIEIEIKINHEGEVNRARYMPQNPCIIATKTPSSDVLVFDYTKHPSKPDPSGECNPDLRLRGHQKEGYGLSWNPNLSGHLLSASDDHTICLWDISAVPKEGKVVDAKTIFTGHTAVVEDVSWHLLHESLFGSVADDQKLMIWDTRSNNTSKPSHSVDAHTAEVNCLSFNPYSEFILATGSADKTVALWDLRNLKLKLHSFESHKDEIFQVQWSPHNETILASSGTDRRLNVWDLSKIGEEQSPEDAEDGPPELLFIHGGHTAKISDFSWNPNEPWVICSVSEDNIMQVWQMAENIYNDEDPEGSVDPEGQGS
T1 sequence (Q15022 whole entry partner): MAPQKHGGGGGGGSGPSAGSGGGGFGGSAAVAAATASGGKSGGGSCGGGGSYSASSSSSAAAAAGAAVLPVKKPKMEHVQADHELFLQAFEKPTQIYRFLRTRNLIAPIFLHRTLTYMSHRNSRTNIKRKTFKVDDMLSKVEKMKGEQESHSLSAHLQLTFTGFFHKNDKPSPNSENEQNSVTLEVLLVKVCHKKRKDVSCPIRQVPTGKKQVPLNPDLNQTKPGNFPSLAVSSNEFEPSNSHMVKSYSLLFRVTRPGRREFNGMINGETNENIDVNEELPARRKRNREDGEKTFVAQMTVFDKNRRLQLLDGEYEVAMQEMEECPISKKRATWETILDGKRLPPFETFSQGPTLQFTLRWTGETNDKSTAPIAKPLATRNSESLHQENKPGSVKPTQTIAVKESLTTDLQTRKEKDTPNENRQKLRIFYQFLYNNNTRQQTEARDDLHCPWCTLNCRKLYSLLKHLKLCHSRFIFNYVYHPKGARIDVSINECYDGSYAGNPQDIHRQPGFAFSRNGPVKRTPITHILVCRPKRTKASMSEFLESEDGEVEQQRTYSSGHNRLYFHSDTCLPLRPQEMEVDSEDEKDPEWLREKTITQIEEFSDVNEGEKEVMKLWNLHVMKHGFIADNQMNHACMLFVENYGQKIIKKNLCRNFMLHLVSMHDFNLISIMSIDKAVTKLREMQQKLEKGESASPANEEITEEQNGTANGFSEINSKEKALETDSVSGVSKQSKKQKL

| SMILES | IC50 (Wild-type PRC2/EZH2) [nM] | IC50 (Karpas422 cells) [nM] | IC50 (WSUDLCL-2 cells) [nM] |
| --- | --- | --- | --- |
| COc1cc(C)[nH]c(=O)c1CN1C(=O)c2c(Cl)c(-c3c(C)noc3C)cc3ccn(c23)CC1C (stereo not shown) [Compound 17, 10-chloro-9-(3,5-dimethylisoxazol-4-yl)-2-((4-methoxy-6-methyl-2-oxo-1,2-dihydropyridin-3-yl)methyl)-3-methyl-3,4-dihydro-[1,4]diazepino[6,7,1-HI]indol-1(2H)-one] | 14 | 35 | 1.2 |
| COc1cc(C)[nH]c(=O)c1CN1CCn2ccc3cc(C(OC)C4COC4)c(Cl)c(c32)C1=O (stereo not shown) [Compound 9, 10-chloro-9-(methoxy(oxetan-3-yl)methyl)-2-((4-methoxy-6-methyl-2-oxo-1,2-dihydropyridin-3-yl)methyl)-3,4-dihydro-[1,4]diazepino[6,7,1-HI]indol-1(2H)-one] | 21.5 | – | – |
| COc1cc(C)[nH]c(=O)c1CN1CCn2ccc3cc([C@H](OC)C4COC4)c(Cl)c(c32)C1=O [Compound 10, (R)-10-chloro-9-(methoxy(oxetan-3-yl)methyl)-2-((4-methoxy-6-methyl-2-oxo-1,2-dihydropyridin-3-yl)methyl)-3,4-dihydro-[1,4]diazepino[6,7,1-HI]indol-1(2H)-one] | 7.2 | 11.4 | 2.4 |
| COc1cc(C)[nH]c(=O)c1CN1CC(C)n2ccc3cc(-c4c(C)noc4C)c(Cl)c(c32)C1=O (stereo not shown) [Compound 16, 10-chloro-9-(3,5-dimethylisoxazol-4-yl)-2-((4-methoxy-6-methyl-2-oxo-1,2-dihydropyridin-3-yl)methyl)-4-methyl-3,4-dihydro-[1,4]diazepino[6,7,1-HI]indol-1(2H)-one] | – | 158 | 4.6 |
| COc1cc(C)[nH]c(=O)c1CN1CCn2cnc3cc(-c4c(C)noc4C)c(Cl)c(c32)C1=O [Compound 13, 5-chloro-4-(3,5-dimethylisoxazol-4-yl)-7-((4-methoxy-6-methyl-2-oxo-1,2-dihydropyridin-3-yl)methyl)-8,9-dihydro-2,7,9a-triazabenzo[cd]azulen-6(7H)-one] | – | 359 | 56.1 |
| COc1cc(C)[nH]c(=O)c1CN1CCn2ccc3cc(C(OC)C4COC4)c(C)c(c32)C1=O (stereo not shown) [Compound 14, 9-(methoxy(oxetan-3-yl)methyl)-2-((4-methoxy-6-methyl-2-oxo-1,2-dihydropyridin-3-yl)methyl)-10-methyl-3,4-dihydro-[1,4]diazepino[6,7,1-HI]indol-1(2H)-one] | 11.8 | 28.7 | 4.8 |
| COc1cc(C)[nH]c(=O)c1CN1CCN2CCc3cc(-c4c(C)noc4C)c(Cl)c(c32)C1=O [Compound 3, 10-chloro-9-(3,5-dimethylisoxazol-4-yl)-2-((4-methoxy-6-methyl-2-oxo-1,2-dihydropyridin-3-yl)methyl)-3,4,6,7-tetrahydro-[1,4]diazepino[6,7,1-HI]indol-1(2H)-one] | 19.9 | – | – |

Second part, led by results:

| IC50 (Wild-type PRC2/EZH2) [nM] | IC50 (Karpas422 cells) [nM] | SMILES | IC50 (WSUDLCL-2 cells) [nM] |
| --- | --- | --- | --- |
| 1120 | – | COc1cc(C)[nH]c(=O)c1CN1CCn2cc(Cl)c3cc(-c4c(C)cnn4C)c(Cl)c(c32)C1=O [Compound 6, 7,10-dichloro-9-(1,4-dimethyl-1H-pyrazol-5-yl)-2-((4-methoxy-6-methyl-2-oxo-1,2-dihydropyridin-3-yl)methyl)-3,4-dihydro-[1,4]diazepino[6,7,1-HI]indol-1(2H)-one] | – |
| 1090 | – | COc1cc(C)[nH]c(=O)c1CN1CCn2ccc3cc(-c4c(C)nn(CC#N)c4C)c(Cl)c(c32)C1=O [Compound 8, 2-(4-(10-chloro-2-((4-methoxy-6-methyl-2-oxo-1,2-dihydropyridin-3-yl)methyl)-1-oxo-1,2,3,4-tetrahydro-[1,4]diazepino[6,7,1-HI]indol-9-yl)-3,5-dimethyl-1H-pyrazol-1-yl)acetonitrile] | – |
| 253 | – | COc1cc(C)[nH]c(=O)c1CN1CCn2ccc3cc(-c4c(C)cnn4C)c(Cl)c(c32)C1=O [Compound 5, 10-chloro-9-(1,4-dimethyl-1H-pyrazol-5-yl)-2-((4-methoxy-6-methyl-2-oxo-1,2-dihydropyridin-3-yl)methyl)-3,4-dihydro-[1,4]diazepino[6,7,1-HI]indol-1(2H)-one] | – |
| – | 52 | COc1cc(C)[nH]c(=O)c1CN1CCn2ccc3cc(-c4c(C)noc4C)c(Cl)c(c32)C1=O [Compound 1, 10-chloro-9-(3,5-dimethylisoxazol-4-yl)-2-((4-methoxy-6-methyl-2-oxo-1,2-dihydropyridin-3-yl)methyl)-3,4-dihydro-[1,4]diazepino[6,7,1-HI]indol-1(2H)-one] | 3.8 |
| 17.8 | 50.1 | COc1cc(C)[nH]c(=O)c1CN1CCn2ccc3cc(-c4c(C)noc4C)c(C)c(c32)C1=O [Compound 15, 9-(3,5-dimethylisoxazol-4-yl)-2-((4-methoxy-6-methyl-2-oxo-1,2-dihydropyridin-3-yl)methyl)-10-methyl-3,4-dihydro-[1,4]diazepino[6,7,1-HI]indol-1(2H)-one] | 1.2 |
| 2530 | – | COc1cc(C)[nH]c(=O)c1CN1CCn2ccc3cc(-c4c(C)nn(C)c4C)c(Cl)c(c32)C1=O [Compound 4, 10-chloro-2-((4-methoxy-6-methyl-2-oxo-1,2-dihydropyridin-3-yl)methyl)-9-(1,3,5-trimethyl-1H-pyrazol-4-yl)-3,4-dihydro-[1,4]diazepino[6,7,1-HI]indol-1(2H)-one] | – |
| 557 | 934 | COc1cc(C)[nH]c(=O)c1CN1CCn2ccc3cc([C@@H](OC)C4COC4)c(Cl)c(c32)C1=O [Compound 11, (S)-10-chloro-9-(methoxy(oxetan-3-yl)methyl)-2-((4-methoxy-6-methyl-2-oxo-1,2-dihydropyridin-3-yl)methyl)-3,4-dihydro-[1,4]diazepino[6,7,1-HI]indol-1(2H)-one] | 104 |
| 3650 | – | COc1cc(C)[nH]c(=O)c1CN1CCn2ccc3cc(-c4c(C)nn(CCO)c4C)c(Cl)c(c32)C1=O [Compound 7, 10-chloro-9-(1-(2-hydroxyethyl)-3,5-dimethyl-1H-pyrazol-4-yl)-2-((4-methoxy-6-methyl-2-oxo-1,2-dihydropyridin-3-yl)methyl)-3,4-dihydro-[1,4]diazepino[6,7,1-HI]indol-1(2H)-one] | – |
| 3.8 | – | CCN(c1cc2ccn3c2c(c1Cl)C(=O)N(Cc1c(OC)cc(C)[nH]c1=O)CC3)C1COC1 [Compound 2, 10-chloro-9-(ethyl(oxetan-3-yl)amino)-2-((4-methoxy-6-methyl-2-oxo-1,2-dihydropyridin-3-yl)methyl)-3,4-dihydro-[1,4]diazepino[6,7,1-HI]indol-1(2H)-one] | – |
| – | 87.6 | COc1cc(C)[nH]c(=O)c1CN1CCn2ncc3cc(-c4c(C)noc4C)c(Cl)c(c32)C1=O [Compound 12, 5-chloro-4-(3,5-dimethylisoxazol-4-yl)-7-((4-methoxy-6-methyl-2-oxo-1,2-dihydropyridin-3-yl)methyl)-8,9-dihydro-[1,4]diazepino[6,7,1-HI]indazol-6(7H)-one] | 11 |
